{"source": "patent US4100346A", "about": "“Certain 7(o-amino-methyl- or methylaminomethylphenyl- or cyclohexadienyl- or thienylacetamide)-3[1-carboxymethyl-(or ethyl- or propyl-)-tetrazol-5-ylthiomethyl]-3-cephem-4-carboxylic acids” (Bristol-Myers Company, priority 1976, dated 1978)", "key": {"[1]": {"system": "Str. pneumoniae", "assay": "M.I.C. by Tube Dilution in Nutrient Broth (Examples 1 and 2)", "assay_type": "cell-based", "details": "Streptococcus pneumoniae; Str. pneumoniae A9585 (10^-3 dilution of overnight broth culture); 45% Antibiotic Assay Broth + 50% Nutrient Broth + 5% serum", "text": "(§1) *45% Antibiotic Assay Broth + 50% Nutrient Broth + 5% serum\n(§2) **Dilution of overnight broth culture"}, "[2]": {"system": "Str. pyogenes", "assay": "M.I.C. by Tube Dilution in Nutrient Broth (Examples 1 and 2)", "assay_type": "cell-based", "details": "Streptococcus pyogenes; Str. pyogenes A9604 (10^-3); 45% Antibiotic Assay Broth + 50% Nutrient Broth + 5% serum", "text": "as §1, §2"}, "[3]": {"system": "E. coli", "assay": "M.I.C. by Tube Dilution in Nutrient Broth (Examples 1 and 2)", "assay_type": "cell-based", "details": "Escherichia coli, E. coli A9675 (10^-4)", "text": "(§3) | **Dilution of overnight broth culture"}, "[4]": {"system": "Ent. cloacae", "assay": "M.I.C. by Tube Dilution in Nutrient Broth (Examples 1 and 2)", "assay_type": "cell-based", "details": "Enterobacter cloacae", "text": "as §3"}, "[5]": {"system": "K. pneumoniae", "assay": "M.I.C. by Tube Dilution in Nutrient Broth (Examples 1 and 2)", "assay_type": "cell-based", "details": "Klebsiella pneumoniae", "text": "as §3"}, "[6]": {"system": "Pr. mirabilis", "assay": "M.I.C. by Tube Dilution in Nutrient Broth (Examples 1 and 2)", "assay_type": "cell-based", "details": "Proteus mirabilis; Pr. mirabilis A9900 (10^-4)", "text": "as §3"}, "[7]": {"system": "Pr. morganii", "assay": "M.I.C. by Tube Dilution in Nutrient Broth (Examples 1 and 2)", "assay_type": "cell-based", "details": "Morganella morganii; Pr. morganii A15153 (10^-4)", "text": "as §3"}, "[8]": {"system": "Ps. aeruginosa", "assay": "M.I.C. by Tube Dilution in Nutrient Broth (Examples 1 and 2)", "assay_type": "cell-based", "details": "Pseudomonas aeruginosa", "text": "as §3"}, "[9]": {"system": "S. aureus", "assay": "M.I.C. by Tube Dilution in Nutrient Broth (Examples 1 and 2)", "assay_type": "cell-based", "details": "Staphylococcus aureus", "text": "as §3"}, "[10]": {"system": "Sal. enteritidis", "assay": "M.I.C. by Tube Dilution in Nutrient Broth (Examples 1 and 2)", "assay_type": "cell-based", "details": "Salmonella enterica; Sal. enteritidis A9531 (10 ^4)", "text": "as §3"}, "[11]": {"system": "Ser. marcescens", "assay": "M.I.C. by Tube Dilution in Nutrient Broth (Examples 1 and 2)", "assay_type": "cell-based", "details": "Serratia marcescens; Ser. marcescens A20019 (10^-4)", "text": "as §3"}, "[12]": {"system": "E. cloacae", "assay": "MIC by Tube Dilution Technique in Nutrient Broth (Example 9 table)", "assay_type": "cell-based", "details": "Enterobacter cloacae; El-1 E. cloacae A9656", "text": "(§4) MIC (mcg./ml.) by Tube Dilution Technique in Nutrient Broth."}, "[13]": {"system": "E. coli", "assay": "MIC by Tube Dilution Technique in Nutrient Broth (Example 9 table)", "assay_type": "cell-based", "details": "Escherichia coli", "text": "as §4"}, "[14]": {"system": "P. mirabilis", "assay": "MIC by Tube Dilution Technique in Nutrient Broth (Example 9 table)", "assay_type": "cell-based", "details": "Proteus mirabilis; Pm-2 P. mirabilis A9900", "text": "as §4"}, "[15]": {"system": "S. enteritidis", "assay": "MIC by Tube Dilution Technique in Nutrient Broth (Example 9 table)", "assay_type": "cell-based", "details": "Salmonella enterica; Se-1 S. enteritidis A9531", "text": "as §4"}, "[16]": {"system": "Mycobacterium tuberculosis", "assay_type": "cell-based"}, "[17]": {"system": "Escherichia coli, Klebsiella pneumoniae, Proteus mirabilis, Proteus vulgaris, Salmonella sp., Shigella sp. and Neisseria meningitidis", "assay": "Growth inhibitory activity, antibiotic dilution technique (text summary)", "assay_type": "cell-based", "details": "growth inhibitory activity vs cephalothin, cephaloridine, cefazolin"}, "[18]": {"assay": "Stability in solution, 0.005 M phosphate buffer pH 7.4, 37° C.", "assay_type": "physicochemical", "details": "pH 7.4 and 37° C.", "description": "Stability in Solution. Stability in solution was determined at 37° C. in 0.005 M phosphate buffer of pH 7.4. […] Residual antibiotic activity was determined periodically over a 24-hour period by a turbidimetric assay procedure or by an antibiotic diffusion technique (cephalothin)."}, "[19]": {"assay": "Solubility in water, buffer or urine", "details": "soluble as Na^+ salt, as Na^+ salt"}, "[20]": {"system": "S. aureus", "assay": "Growth inhibitory activity, antibiotic dilution technique", "details": "63 strains tested"}, "[21]": {"system": "S. pneumoniae", "assay": "Growth inhibitory activity, antibiotic dilution technique", "details": "Streptococcus pneumoniae, read-out: concentration inhibiting all strains"}, "[22]": {"system": "S. pyogenes", "assay": "Growth inhibitory activity, antibiotic dilution technique", "details": "Streptococcus pyogenes, read-out: concentration inhibiting all strains"}, "[23]": {"system": "S. viridans", "assay": "Growth inhibitory activity, antibiotic dilution technique", "details": "Streptococcus viridans, read-out: concentration inhibiting all strains"}, "[24]": {"system": "Streptococcus faecalis", "assay": "Growth inhibitory activity, antibiotic dilution technique"}, "[25]": {"system": "Enterobacter sp. and Citrobacter sp.", "assay": "Growth inhibitory activity, antibiotic dilution technique (text summary)", "details": "compared with cephalothin, cephaloridine, cefazolin"}}}
{"smiles": "NCc1ccccc1CC(=O)N[C@@H]1C(=O)N2C(C(=O)O)=C(CSc3nnnn3CC(=O)O)CS[C@H]12", "note": "[Example 1]", "values": [{"measurement": "MIC", "setting": "[1]", "result": 0.13, "unit": "µg/mL"}, {"measurement": "MIC", "setting": "[2]", "result": 0.13, "unit": "µg/mL"}, {"measurement": "MIC", "setting": "[3]", "result": 16, "unit": "µg/mL"}, {"measurement": "MIC", "setting": "[4]; Ent. cloacae A9657 (10^-4)", "result": 0.25, "unit": "µg/mL"}, {"measurement": "MIC", "setting": "[4]; Ent. cloacae A9659 (10^-4)", "result": 32, "unit": "µg/mL"}, {"measurement": "MIC", "setting": "[4]; Ent. cloacae A9656 (10^-4)", "result": "> 125", "unit": "µg/mL"}, {"measurement": "MIC", "setting": "[5]; K. pneumoniae A9977 (10^-4)", "result": 0.13, "unit": "µg/mL"}, {"measurement": "MIC", "setting": "[5]; K. pneumoniae A15130 (10^-4)", "result": 2, "unit": "µg/mL"}, {"measurement": "MIC", "setting": "[6]", "result": 0.13, "unit": "µg/mL"}, {"measurement": "MIC", "setting": "[7]", "result": 32, "unit": "µg/mL"}, {"measurement": "MIC", "setting": "[8]", "result": "> 125", "unit": "µg/mL"}, {"measurement": "MIC", "setting": "[9]; S. aureus BX1633 A9606 (10^-2)", "result": 2, "unit": "µg/mL"}, {"measurement": "MIC", "setting": "[9]; S. aureus BX1633 A9606 (10^-3)", "result": 1, "unit": "µg/mL"}, {"measurement": "MIC", "setting": "[9]; S. aureus Meth-Res A15097 (10^-3)", "result": 4, "unit": "µg/mL"}, {"measurement": "MIC", "setting": "[9]; S. aureus Smith A9537 (10^-4)", "result": 1, "unit": "µg/mL"}, {"measurement": "MIC", "setting": "[9]; S. aureus-50% serum A9537 (10^-4)", "result": 4, "unit": "µg/mL"}, {"measurement": "MIC", "setting": "[10]", "result": 0.06, "unit": "µg/mL"}, {"measurement": "MIC", "setting": "[11]", "result": 125, "unit": "µg/mL"}, {"measurement": "MIC", "setting": "[12]", "result": 50, "unit": "µg/mL"}, {"measurement": "MIC", "setting": "[13]; Ec-1 E. coli NIHJ", "result": 0.8, "unit": "µg/mL"}, {"measurement": "MIC", "setting": "[13]; Ec-3 E. coli Juhl A15119", "result": 0.8, "unit": "µg/mL"}, {"measurement": "MIC", "setting": "[13]; Ec-58 E. coli A9675", "result": 6.3, "unit": "µg/mL"}, {"measurement": "MIC", "setting": "[14]", "result": 0.4, "unit": "µg/mL"}, {"measurement": "MIC", "setting": "[15]", "result": 0.2, "unit": "µg/mL"}, {"measurement": "times more active than the control compounds", "setting": "[16]", "result": "4 to 32"}, {"measurement": "times more active than the reference cephalosporins", "setting": "[17]", "result": "2 to 16"}, {"measurement": "half-life", "setting": "[18]", "result": "> 24", "unit": "h"}, {"measurement": "solubility", "setting": "[19]", "result": "≥ 250", "unit": "mg/mL"}, {"measurement": "number of strains of S. aureus inhibited", "setting": "[20]; at 4 mcg./ml.", "result": 62, "unit": "strains"}, {"measurement": "number of strains of S. aureus inhibited", "setting": "[20]; at 8 mcg./ml.", "result": 63, "unit": "strains"}, {"measurement": "MIC", "setting": "[21]", "result": 0.25, "unit": "µg/mL"}, {"measurement": "MIC", "setting": "[22]", "result": 0.5, "unit": "µg/mL"}, {"measurement": "MIC", "setting": "[23]", "result": 4, "unit": "µg/mL"}, {"measurement": "susceptibility of Streptococcus faecalis", "setting": "[24]", "result": "resistant"}, {"measurement": "activity against Enterobacter sp. and Citrobacter sp.", "setting": "[25]", "result": "alone was active"}]}
